Measurements as given in patent EP0547191B1, “PARTICULATE VECTOR HAVING SELECTIVE TROPISM, METHOD OF PREPARATION AND PHARMACEUTICAL COMPOSITION” (BIOVECTOR THERAPEUTICS SA, priority 1991, dated 1992).

Tested on: fibroblastes humains normaux
Test: Flow cytofluorimetry: cellular incorporation of doxorubicin measured by emitted fluorescence
Type: cell-based
Conditions: fibroblasts after 48h in lipoprotein-depleted medium
Experimental: Après 48h de culture en milieu délipoprotéiné, les fibroblastes humains normaux sont incubés avec de la doxorubicine sous forme libre ou encapsulée dans des BVSM ou des BVSM-apoB. Après incubation, de 0, à 2h, ils sont lavés, mis en contact avec de la trypsine 0,05% pendant 1min à37°C, repris en suspension dans du milieu de culture et fixés par du paraformaldéhyde. Les suspensions cellulaires obtenues sont analysées à l'aide d'un cytofluorimètre de flux (Becton-Dickinson Fac-scan) et l'incorporation cellulaire de la doxorubicine est mesurée par l'intensité de fluorescence émise. Les témoins fibroblastes avec BVSM et BVSM-apoB sans doxorubicine ne présentent aucune fluoresence.
Les résultats obtenus sont présentés dans le tableau suivant : […]

Structure (SMILES): COc1cccc2c1C(=O)c1c(O)c3c(c(O)c1C2=O)C[C@@](O)(C(=O)CO)C[C@@H]3O[C@H]1C[C@H](N)[C@H](O)[C@H](C)O1 [Doxorubicine libre, doxorubicine]
- Intensité de fluorescence émise (Temps d'incubation 0 min): 5
- Intensité de fluorescence émise (Temps d'incubation 10 min): 22
- Intensité de fluorescence émise (Temps d'incubation 30 min): 25
- Intensité de fluorescence émise (Temps d'incubation 60 min): 31
- Intensité de fluorescence émise (Temps d'incubation 120 min): 42
